Paper PMC12024213, “Mechanism Insight of Cell Death Signaling by Thymol Derivatives on Trypanosomatidae Protozoan Parasites” (Antibiotics, 2025)

How the values were obtained:
L. amazonensis [1] = test: ATP level, CellTiter-Glo, L. amazonensis; type: cell-based, Leishmania amazonensis; settings: IC90, 24 h, luminescence
Description: The adenosine triphosphate (ATP) level was measured using the CellTiter-Glo Luminescent Cell Viability Assay (Promega, Madrid, Spain). The mitochondria in which most cellular oxidations occur is considered the main source of cell’s ATP; any damage and/or malfunction of this organelle generate the depletion of ATP levels.

T. cruzi [2] = test: Atomic force microscopy, T. cruzi; type: cell-based, Trypanosoma cruzi; settings: IC90, 12 and 24 h
Description: (§1) […] After incubation, cells were washed twice with PBS, and 10 µL of a 10^5 cells/mL suspension was smeared onto glass slides. Prior to AFM analysis, samples were dried for 10 min. AFM topographic images were acquired in Peak Force mode using a multimode microscope equipped with a Nanoscope V control unit (Bruker). Scans were performed at rates of 0.5–1.2 Hz, employing FESP tips (50–100 kHz, 1–5 N/m) from Bruker. The damage caused by derivative 9 in both parasites was assessed by recording images at scales ranging from 100 µm × 100 µm to 0.6 µm × 0.6 µm, with a resolution of 512 points per line.

L. amazonensis [3] = test: Atomic force microscopy, L. amazonensis; type: cell-based, Leishmania amazonensis; settings: IC90, 12 and 24 h
Description: as §1

intramacrophage T. cruzi = test: Intramacrophagic stage assay, T. cruzi in J774.A1 macrophages; type: cell-based, Trypanosoma cruzi; settings: Trypanosoma cruzi; intramacrophage stage in J774.A1, 24 h treatment; mean ± SD; read-out: T. cruzi Intracellular IC50
Description: (§2) Briefly, in a 96-well plate, macrophages from the J774.A1 cell line were seeded at a final concentration of 2 × 10^5 cells/mL in Dulbecco’s Modified Eagle Medium (DMEM) and maintained at 37 °C in a 5% CO2 atmosphere until fully adhesion. Cells were infected either with L. amazonensis promastigotes (at a ratio of 1:10) or epimastigotes of T. cruzi (at a ratio of 1:7) (macrophage: parasite) and incubated at 37 °C in 5% CO2 for 24 h for Leishmania and 48 h for Trypanosoma. After infection, plates were washed using DMEM to eliminate external parasites. Subsequently, infected macrophages were treated with different concentrations of active compounds for 24 h. Later, macrophages were lysed using 30 μL of medium, Schneider for Leishmania, and in liver infusion tryptose for Trypanosoma, containing 0.05% of sodium dodecyl sulfate (SDS) for 30 s under agitation. Afterwards, 170 μL of the appropriated medium was derivatives added to each well to give a final volume of 200 μL. Subsequently, 10% of alamarBlue® was added into each well and the plate was incubated at 26 °C for 72 h.
(§3) Cytotoxicity effect of the tested derivatives was conducted using macrophages of the murine cell line J774.A1 (American Type Culture Collection #TIB-67, city, country), as previously described. The cells were maintained in DMEM at 37 °C in a 5% CO2 humidified incubator. All the plates containing alamarBlue® were analyzed using a plate reader EnSpire Multimode Plate Reader® at excitation and emission wavelengths of 570 and 585 nm, respectively (PerkinElmer, ThermoFisher Scientific, Madrid, Spain). The IC50 (concentrations able to inhibit 50% of parasites), IC90 (concentrations able to inhibit 90% of parasites), and CC50 (concentration able to inhibit 50% of murine macrophages) values were determined for each compound by nonlinear regression using GraphPad software.

[4] = as above; type: cell-based, Trypanosoma cruzi; settings: mouse; CC50 J774.A1 / IC50 intracellular T. cruzi; read-out: Selectivity Trypanosoma SI (CC50/IC50)
Description: as §2, §3

T. cruzi epimastigotes = test: Mitochondrial membrane potential, JC-1, T. cruzi; type: cell-based, Trypanosoma cruzi; settings: JC-1 red/green ratio, IC90, 24 h
Description: The measurement of mitochondrial membrane potential was carried out using the JC-1 assay. JC-1 is a mitochondria-specific stain whose fluorescence emission depends on the mitochondrial membrane potential. In healthy mitochondria, JC-1 aggregates and emits red fluorescence, whereas in unhealthy mitochondria, it remains in monomeric form and emits green fluorescence. […] The assay was performed according to the manufacturer’s instructions, as detailed in a previous study.

L. amazonensis [5] = test: Intracellular ROS, CellROX Deep Red, L. amazonensis; type: cell-based, Leishmania amazonensis; settings: 24 h incubation
Description: (§4) The measure of reactive oxygen species (ROS) was measured after treatment of 24 h using CellROX® Deep Red fluorescent probe (Invitrogen, Madrid, Spain). The mitochondria constitute an essential organelle to neutralize the reactive oxygen species; the malfunction of this organelle would generate an imbalance between the antioxidants and the reactive oxygen.

T. cruzi [6] = test: Intracellular ROS, CellROX Deep Red, T. cruzi; type: cell-based, Trypanosoma cruzi; settings: 24 h incubation
Description: as §4

[7] = Cytotoxicity assay on murine macrophages (alamarBlue); type: cell-based; settings: mouse, J774.A1 macrophage cell line, mean ± SD
Description: as §3

T. cruzi [8] = test system: T. cruzi
Description: (§5) The effect of derivatives 9 and 10 to modulate cell features was studied in the tested protozoa parasites, using various specific commercial kits. Parasite cells were incubated with the derivative at the previously calculated IC90 for 24 h. Subsequently, cells were washed and submitted to different treatments as mentioned by the manufacturer’s instructions. In all the assays, a plate reader EnSpire Multimode Plate Reader® and/or an image base system fluorescence microscope EVOS M5000 were used for the fluorescence intensity quantification. For each protocol, images of representative population cells were obtained using an inverted confocal microscope Leica DMI 4000 B with LAS X software, and Leica HC PL APO 63×/1.40 OIL CS2 Objective (Barcelona, Spain). The SYTOX™ Green (Life Technologies, Madrid, Spain), a cell impermeable DNA binding stain, was used to evaluate the membrane permeability and integrity. The assay was conducted as detailed in the manufacture instructions, and as previously described.

L. amazonensis [9] = test system: L. amazonensis
Description: as §5

## COc1ccc(C(=O)Oc2cc(C)ccc2C(C)C)cc1 [Derivative 9, thymyl anysoate]
L. amazonensis [1]
  decrease of ATP production compared to negative control: 84%
T. cruzi [2]
  morphological effects (AFM): induced the formation of giant vacuoles in the cytoplasm
L. amazonensis [3]
  morphological effects (AFM): induced the formation of giant vacuoles in the cytoplasm
Intramacrophage T. cruzi
  IC50: 9.1 ± 0.5 µM
[4]
  selectivity ratio: > 33
T. cruzi epimastigotes
  decrease of mitochondrial membrane potential (ΔΨm): 70%
L. amazonensis [5]
  intracellular ROS (CellROX Deep Red): induced oxidative stress
T. cruzi [6]
  intracellular ROS (CellROX Deep Red): induced oxidative stress
[7]
  CC50: > 300 µM

## Cc1ccc(C(C)C)c(OC(=O)c2ccccn2)c1 [Derivative 10, thymyl picolinate]
L. amazonensis [1]
  decrease of ATP production compared to negative control: 67%
T. cruzi [8]
  plasma membrane permeability (SYTOX Green): greater damage to membrane permeability
L. amazonensis [9]
  plasma membrane permeability (SYTOX Green): greater damage to membrane permeability
Intramacrophage T. cruzi
  IC50: 28.8 ± 5.6 µM
[4]
  selectivity ratio: 8.8
[7]
  CC50: 254.5 ± 1.9 µM
